Here are results for eight compounds from ChEMBL document CHEMBL1136245, “HIV-1 protease inhibitors with picomolar potency against PI-resistant HIV-1 by modification of the P1' substituent” (Bioorg Med Chem Lett, 2003).

The nature of series [1]: Solubility of compound at pH 5.2. The format is physicochemical. The note with it: buffer.
The nature of series [2]: Half life of compound after both po and iv administration at a dose of 5 mg/kg and 2 mg/kg resp in dog. The note with it: in vivo. The format is ADME, organism-based, Canis lupus familiaris.
For series [3], the system named is MT4. Briefly: Antiviral activity of compound against spread of wild type V-18C virus infection in MT-4 human T-lymphoid cells. The format is functional. The note with it: read-out: CIC95.
For series [4], the system named is MT4. As to the kind of experiment: Antiviral activity of compound against spread of wild type Q-60C virus infection in MT-4 human T-lymphoid cells. To be noted: read-out: CIC95. The format is functional.
In series [5] the target is T1, Human immunodeficiency virus type 1 protease (Human immunodeficiency virus 1, UniProt Q72874). As to the kind of experiment: Inhibitory activity of compound against HIV-1 protease in HIV-1 (K-60C) strain.
Series [6] addresses T1, Human immunodeficiency virus type 1 protease. Briefly: Inhibitory activity of compound against HIV-1 protease in HIV-1 (Q-60C) strain.
Series [7] has the same target. Briefly: Inhibitory activity of compound against HIV-1 protease in HIV-1 (V-18C) strain.
The nature of series [8]: Area under curve of compound after both po and iv administration at a dose of 5 mg/kg and 2 mg/kg resp in dog. The note with it: in vivo. The format is ADME, organism-based, Canis lupus familiaris.
Series [9] is described as follows: Clearance of compound after both po and iv administration at a dose of 5 mg/kg and 2 mg/kg resp in dog. The format is ADME, organism-based, Canis lupus familiaris. The note with it: in vivo.
Series [10] concerns MT4. As to the kind of experiment: Antiviral activity of compound against spread of wild type NL4-3 virus infection in MT-4 human T-lymphoid cells. The format is functional. To be noted: read-out: CIC95.
Series [11] relates to MT4. Briefly: Antiviral activity of compound against spread of wild type K-60C virus infection in MT-4 human T-lymphoid cells. To be noted: read-out: CIC95. The format is functional.
Series [12] has as its target T1, Human immunodeficiency virus type 1 protease. As to the kind of experiment: Inhibitory activity of compound against HIV-1 protease in wild type NL4-3 virus.
Series [13] concerns the target T2, Cytochrome P450 2D6 (Homo sapiens, UniProt P10635). Briefly: (§1) Inhibition of human liver microsome Cytochrome P450 2D6. The format is ADME, microsomes. For orientation: Liver microsomes are vesicles of endoplasmic reticulum, rich in cytochrome P450 enzymes.
Series [14] in a line: Cmax of compound after both po and iv administration at a dose of 5 mg/kg and 2 mg/kg resp in dog. The format is ADME, organism-based, Canis lupus familiaris. To be noted: in vivo.
The next series concerns the target Cytochrome P450 3A4 (Homo sapiens, UniProt P08684). As to the kind of experiment: Inhibition of human liver microsome Cytochrome P450 3A4. The format is ADME, microsomes.
Series [15] in a line: Oral bioavailability in dog (dose 5 mg/kg p.o. and 2 mg/kg i.v.). The format is ADME, organism-based, Canis lupus familiaris. To be noted: in vivo.
Series [16] concerns the target T3, Cytochrome P450 2C9 (Homo sapiens, UniProt P11712). Briefly: Inhibition of huamn liver microsome Cytochrome P450 2C9. The format is ADME, microsomes.
For series [17], the target named is T2, Cytochrome P450 2D6. The series is described as §1. The format is ADME.
Series [18] has as its target T3, Cytochrome P450 2C9. As to the kind of experiment: Inhibition of human liver microsome Cytochrome P450 2C9. The format is ADME, microsomes.

As usually defined, the solubility is how much of the substance goes into solution per volume. Read a high solubility as much dissolved substance. In general, half-life refers to the time in which the quantity being followed falls by half. A low value points to fast loss. For orientation: IC50 means the point on the concentration scale where inhibition reaches its midpoint. Lower therefore signals greater potency. By AUC is commonly meant the area under the concentration-time curve, a measure of exposure. By Cmax is commonly meant the highest concentration seen after dosing. For orientation: bioavailability means dose-corrected exposure relative to a reference, in per cent. A higher bioavailability goes with good availability.

In brackets after ≈: the same amount, converted by molar mass. A value given as a limit tells only on which side of the number the result lay.

Sequence of Cytochrome P450 3A4 (P08684 whole entry): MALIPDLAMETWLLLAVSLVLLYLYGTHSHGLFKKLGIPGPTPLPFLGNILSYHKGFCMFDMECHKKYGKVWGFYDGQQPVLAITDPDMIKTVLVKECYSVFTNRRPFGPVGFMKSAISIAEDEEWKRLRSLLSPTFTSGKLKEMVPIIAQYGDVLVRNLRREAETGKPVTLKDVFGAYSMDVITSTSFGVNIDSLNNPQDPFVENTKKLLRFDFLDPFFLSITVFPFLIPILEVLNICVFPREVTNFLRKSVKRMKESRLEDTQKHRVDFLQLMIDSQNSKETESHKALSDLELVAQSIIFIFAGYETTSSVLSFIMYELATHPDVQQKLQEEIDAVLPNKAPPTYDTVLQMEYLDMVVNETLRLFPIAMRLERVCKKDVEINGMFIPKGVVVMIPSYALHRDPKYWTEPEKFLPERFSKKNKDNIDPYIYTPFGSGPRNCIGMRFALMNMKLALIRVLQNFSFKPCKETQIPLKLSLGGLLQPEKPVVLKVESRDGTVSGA
T3 sequence (P11712 whole entry): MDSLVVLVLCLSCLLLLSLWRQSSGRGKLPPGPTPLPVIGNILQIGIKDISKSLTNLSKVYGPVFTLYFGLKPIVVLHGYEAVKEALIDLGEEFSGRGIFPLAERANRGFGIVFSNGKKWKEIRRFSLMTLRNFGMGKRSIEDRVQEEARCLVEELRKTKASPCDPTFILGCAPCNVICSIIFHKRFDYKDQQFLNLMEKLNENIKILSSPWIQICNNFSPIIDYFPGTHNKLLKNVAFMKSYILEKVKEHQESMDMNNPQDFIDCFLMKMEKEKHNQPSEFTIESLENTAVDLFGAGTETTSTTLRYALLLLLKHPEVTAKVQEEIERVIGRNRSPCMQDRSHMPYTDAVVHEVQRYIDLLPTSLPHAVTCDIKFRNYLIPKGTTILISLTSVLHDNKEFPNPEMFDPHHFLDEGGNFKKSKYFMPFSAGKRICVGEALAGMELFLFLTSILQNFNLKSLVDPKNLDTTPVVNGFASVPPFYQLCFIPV
T2 sequence (P10635 whole entry): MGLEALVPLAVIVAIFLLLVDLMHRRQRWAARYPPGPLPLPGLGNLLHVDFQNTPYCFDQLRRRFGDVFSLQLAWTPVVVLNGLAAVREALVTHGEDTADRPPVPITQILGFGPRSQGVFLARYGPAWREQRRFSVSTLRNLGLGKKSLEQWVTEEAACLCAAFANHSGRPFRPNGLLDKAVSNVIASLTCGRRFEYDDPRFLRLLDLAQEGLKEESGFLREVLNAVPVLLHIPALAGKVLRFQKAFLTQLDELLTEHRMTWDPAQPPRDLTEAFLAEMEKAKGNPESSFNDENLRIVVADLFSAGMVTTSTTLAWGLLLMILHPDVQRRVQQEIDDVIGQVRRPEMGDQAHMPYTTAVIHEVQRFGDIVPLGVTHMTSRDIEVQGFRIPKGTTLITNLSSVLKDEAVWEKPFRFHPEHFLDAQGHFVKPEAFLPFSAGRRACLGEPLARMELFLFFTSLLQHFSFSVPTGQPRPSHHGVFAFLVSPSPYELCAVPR

On to `O=C(N[C@H]1c2ccccc2OC[C@H]1O)[C@H](Cc1ccccc1)C[C@H](O)CN1CCN(Cc2ccc(-c3ccncc3)o2)C[C@H]1C(=O)NCC(F)(F)F`, for which the solubility in [1] is 670 µg/mL (≈ 928 µM). In series [2], this compound had a half-life of 60 min. The IC95 in the series on MT4 [3] was 0.031 µM; in the series with MT4 [4], 0.031 µM; with MT4 [10], no more than 0.008 µM; with MT4 [11] it was 0.015 µM. Besides, the IC50 in [5] amounted to 0.6 nM; in series [6] it was 0.8 nM; in series [7], 1.3 nM. Also, in [8], the AUC stood at 2.58 µM·h. For the same compound, the clearance in [9] came out at 24.5 mL/min/kg.

As for `O=C(N[C@H]1c2ccccc2OC[C@H]1O)[C@H](Cc1cccnc1)C[C@H](O)CN1CCN(Cc2cc3ccccc3o2)C[C@H]1C(=O)NCC(F)(F)F`, the concentration for half-maximal inhibition (IC50) in series [12] is 0.04 nM; against Cytochrome P450 2D6 [13] it was 19 µM; on Cytochrome P450 3A4, 480 nM; in series [5], 3.7 nM; in series [6], 2.7 nM; in [7] it was 1.3 nM. In addition, the IC50 on Cytochrome P450 2C9 [16] is 48.8 µM. The same compound came in with a Cmax in series [14] of 3360 nM. The compound also had a bioavailability in series [15] of 24%. The same compound registered a solubility in [1] of 310 µg/mL (≈ 446 µM). For the same compound, in series [2], the half-life was found to be 52 min. Further, the IC95 in the series on MT4 [3] came out at 0.031 µM; in the series on MT4 [4], 0.125 µM; in the series with MT4 [10] it was 0.015 µM; in the series with MT4 [11], 0.125 µM. Besides, in series [8], the AUC was 1.94 µM·h. In addition, in [9], the clearance stood at 15 mL/min/kg.

`CC(C)(C)NC(=O)[C@@H]1CN(Cc2cccnc2)CCN1C[C@@H](O)C[C@@H](Cc1ccccc1)C(=O)N[C@H]1c2ccccc2C[C@H]1O`: the IC95 in the series on MT4 [3] is greater than 1 µM; in the series on MT4 [4], greater than 1 µM; in the series on MT4 [10] it was 0.05 µM; in the series on MT4 [11], greater than 1 µM.

As for `O=C(N[C@H]1c2ccccc2OC[C@H]1O)[C@H](Cc1ccncc1)C[C@H](O)CN1CCN(Cc2ccc(-c3ccccc3)o2)C[C@H]1C(=O)NCC(F)(F)F`, the 50% inhibitory concentration (IC50) was 0.04 nM in series [12]; 14.9 µM on Cytochrome P450 2D6 [13]; 1500 nM on Cytochrome P450 3A4; 0.11 nM in [5]; 0.2 nM in series [6]; 0.34 nM in [7]. The compound also displayed a Cmax in series [14] of 210 nM. Further, the bioavailability in series [15] was 2%. In [1], this compound had a solubility of 40 µg/mL (≈ 55.4 µM). The compound further came in with a half-life in [2] of 64 min. The IC95 was 0.031 µM in the series on MT4 [3], 0.031 µM with MT4 [4], 0.015 µM in the series with MT4 [10] and no more than 0.008 µM in the series with MT4 [11]. In [8], the AUC is 0.16 µM·h. This compound displayed a clearance in series [9] of 17.4 mL/min/kg.

On to `O=C(N[C@H]1c2ccccc2OC[C@H]1O)[C@H](Cc1ccncc1)C[C@H](O)CN1CCN(Cc2cc3cccc(Cl)c3o2)C[C@H]1C(=O)NCC(F)(F)F`, for which the IC50 in series [12] came to 0.03 nM; in [5], 0.92 nM; in series [7] it was 0.14 nM. Also, the solubility in series [1] was less than 10 µg/mL. Further, the IC95 in the series with MT4 [3] is no more than 0.008 µM; in the series with MT4 [4], 0.125 µM; in the series on MT4 [10] it was no more than 0.008 µM; in the series with MT4 [11], 0.062 µM.

On to `O=C(N[C@H]1c2ccccc2OC[C@H]1O)[C@H](Cc1ccncc1)C[C@H](O)CN1CCN(Cc2cc3ccccc3o2)C[C@H]1C(=O)NCC(F)(F)F`, for which the IC50 in series [12] is 0.1 nM; against Cytochrome P450 2D6 [13], 3.6 µM; on Cytochrome P450 3A4, 2200 nM; in series [5], 10 nM; in [7] it was 2.2 nM. Further, in [14], the Cmax stood at 380 nM. For the same compound, in [15], the bioavailability is 4%. This compound also displayed a solubility in series [1] of 280 µg/mL (≈ 402 µM). The same compound returned a half-life in series [2] of 102 min. For the same compound, the IC95 with MT4 [4] was determined as 0.25 µM; with MT4 [10], 0.015 µM. Further, the AUC in series [8] turned out to be 0.22 µM·h. The same compound yielded a clearance in series [9] of 22.5 mL/min/kg.

In the case of `O=C(N[C@H]1c2ccccc2OC[C@H]1O)[C@H](Cc1cccnc1)C[C@H](O)CN1CCN(Cc2ccc(-c3ccccc3)o2)C[C@H]1C(=O)NCC(F)(F)F`, the IC50 in [12] was 0.02 nM; on Cytochrome P450 2D6 [13], 15.6 µM; at Cytochrome P450 3A4, 430 nM; in series [5] it was 0.06 nM; in series [6] it was 0.07 nM; in series [7], 0.15 nM. On Cytochrome P450 2C9 [16], this compound showed a concentration for half-maximal inhibition (IC50) of 83.9 µM. This compound returned a Cmax in series [14] of 110 nM. In [15], the bioavailability stood at 1%. In series [1], this compound displayed a solubility of 10 µg/mL (≈ 13.9 µM). The half-life in series [2] was 74 min. The IC95 with MT4 [3], with MT4 [4], with MT4 [10] and in the series with MT4 [11] was no more than 0.008 µM throughout. Further, the AUC in series [8] turned out to be 0.08 µM·h. Moreover, in series [9], the clearance is 20.5 mL/min/kg.

With `O=C(N[C@H]1c2ccccc2OC[C@H]1O)[C@H](Cc1cccnc1)C[C@H](O)CN1CCN(Cc2cc3cccc(Cl)c3o2)C[C@H]1C(=O)NCC(F)(F)F`, the IC50 amounted to 0.02 nM in series [12]; 8.8 µM on Cytochrome P450 2D6 [17]; 500 nM against Cytochrome P450 3A4; 27.3 µM at Cytochrome P450 2C9 [18]; 0.12 nM in [7]. The compound also showed a solubility in series [1] of 10 µg/mL (≈ 13.7 µM). In addition, the IC95 in the series on MT4 [3] was no more than 0.008 µM; with MT4 [4], 0.031 µM; in the series on MT4 [10], 0.01 µM; with MT4 [11] it was 0.031 µM.
